Laboratory results published in US20240041976A1, “COMPOSITION AND USE” (priority 2020, published 2024).
No end group written: not given here.

Experiments:
[1] = tested on: S. aureus Newman; assay: Planktonic cell growth inhibition assay (MIC50, liquid culture); format: cell-based, Staphylococcus aureus
Description: (§1) Growth inhibition assays were performed in 96-well microtiter plates as described previously (Chi and Holo, 2018, supra). Briefly, 135 μl of TSB were dispensed in each well of a microtiter plate (according to the number of bacterial strains tested) except in the wells of the first row. The antimicrobials were diluted in TSB to working concentrations in a final volume of 285 μl and dispensed in the wells of the first row. The working concentrations were 100 μg/μl for garvicin KS, 10 μg/μl for micrococcin P1 and 1 mg/ml for penicillin G. From the first row, 150 μl of the antimicrobials were then serially diluted (two-fold dilutions) in a sequential fashion until the last row of the plate. Finally, 15 μl of a fresh O/N culture of each strain were added in the appropriate wells to reach a final volume of 150 μl in each well. The plates were then incubated at 37° C. for 24 h. The growth inhibition was expressed as minimum inhibitory concentration (MIC50), which refers to the minimum concentration of the antimicrobial needed to reduce at least 50% of the microbial growth compared to the untreated control. The MIC50 was assessed by optical density readings at 600 nm (O.D.600).
(§2) Synergistic interactions between antimicrobials were determined using the fractional inhibition concentration (FIC). The FIC values were calculated as follows: the sum of the FIC =FICa+FICb+FICc, where the FICa means MIC of A in combination/MIC of A alone, FICb means MIC of B in combination/MIC of B, and FICc means MIC of C in combination/MIC of C alone. Effects were considered as synergistic if FIC was ≤0.5 for two components mixture and ≤0.75 for three components mixture.

[2] = tested on: S. aureus ATTC 33591; assay: as above; format: cell-based, Staphylococcus aureus
Description: as §1, §2

[3] = tested on: S. aureus USA 300; assay: as above; format: cell-based, Staphylococcus aureus
Description: as §1, §2

[4] = tested on: S. aureus ATTC 10832; assay: as above; format: cell-based, Staphylococcus aureus
Description: as §1, §2

[5] = tested on: S. aureus ATTC 29213; assay: as above; format: cell-based, Staphylococcus aureus
Description: as §1, §2

[6] = tested on: S.a. 3255; assay: as above; format: cell-based, Staphylococcus aureus
Description: as §1, §2

[7] = tested on: S. haemolyticus 4069; assay: microbe, parasite or virus in culture; conditions: for MIC of the component in combination: 4069
Description: as §1, §2
(§3) Bacteriocins and antimicrobial assays. […] These bacteriocins were all solubilized in 0.1% (vol/vol) trifluoracetic acid (TFA; Sigma-Aldrich). […] Cell growth inhibition assays and antimicrobial synergy determination was performed in line with Example 1.
(§4) To investigate whether there was synergy between the three bacteriocins (K1-EJ, GarKS and MP1), a checkboard antimicrobial assay was performed. The selected strains were treated for 5, 24 and 48 h with a range of concentrations of K1-EJ, GarKS and MP1 alone or in different combinations.

[8] = tested on: S. haemolyticus 4068; assay: microbe, parasite or virus in culture; conditions: for MIC of the component in combination: 4068
Description: as §1, §2, §3, §4

[9] = tested on: S. haemolyticus 4073; assay: microbe, parasite or virus in culture; conditions: for MIC of the component in combination: 4073
Description: as §1, §2, §3, §4

[10] = tested on: S. haemolyticus 4071; assay: microbe, parasite or virus in culture; conditions: for MIC of the component in combination: 4071
Description: as §1, §2, §3, §4

[11] = tested on: S. haemolyticus 4072; assay: microbe, parasite or virus in culture; conditions: for MIC of the component in combination: 4072
Description: as §1, §2, §3, §4

[12] = Staphylococcus aureus, individual component, read-out: MIC50
[13] = garvicin KS + micrococcin P1 + penicillin G

## CC1(C)S[C@@H]2[C@H](NC(=O)Cc3ccccc3)C(=O)N2[C@H]1C(=O)O [Penicillin G]
[1]; [12]
  MIC50: < 7.8 µg/mL
[1]; [13]
  MIC50 of the component in combination: <7.8 µg/mL
[1]; garvicin KS + penicillin G
  MIC50 of the component in combination: <7.8 µg/mL
[2]; Staphylococcus aureus, ATTC33591, individual component, read-out: MIC50
  MIC50: > 1000 µg/mL
[2]; [13]
  MIC50 of the component in combination: 130 µg/mL
[2]; garvicin KS + penicillin G
  MIC50 of the component in combination: 500 µg/mL
[3]; Staphylococcus aureus, USA300, individual component, read-out: MIC50
  MIC50: > 1000 µg/mL
[3]; [13]
  MIC50 of the component in combination: 63 µg/mL
[3]; garvicin KS + penicillin G
  MIC50 of the component in combination: 250 µg/mL
[4]; Staphylococcus aureus, ATTC10832, individual component, read-out: MIC50
  MIC50: < 7.8 µg/mL
[4]; [13]
  MIC50 of the component in combination: <7.8 µg/mL
[4]; garvicin KS + penicillin G
  MIC50 of the component in combination: <7.8 µg/mL
[5]; Staphylococcus aureus, ATTC29213, individual component, read-out: MIC50
  MIC50: 130 µg/mL
[5]; [13]
  MIC50 of the component in combination: 31 µg/mL
[5]; garvicin KS + penicillin G
  MIC50 of the component in combination: 130 µg/mL
[6]; [12]
  MIC50: < 7.8 µg/mL
[6]; [13]
  MIC50 of the component in combination: <7.8 µg/mL
[6]; garvicin KS + penicillin G
  MIC50 of the component in combination: <7.8 µg/mL

## MKFKFNPTGTIVKKLTQYEINWYKQQYGRYPWERPVA [Hybrid K1-EJ]
[7]; 4069, 5 h
  MIC: 0.78 µg/mL
[7]; 4069, 24 h
  MIC: 0.78 µg/mL
[7]; 4069, 48 h
  MIC: >100 µg/mL
[7]; 5 h, K1-EJ + GarKS
  MIC of the component in combination: 1.4 µg/mL
[7]; 5 h, K1-EJ + GarKS + MP1
  MIC of the component in combination: 0.68 µg/mL
[7]; 5 h, K1-EJ + MP1
  MIC of the component in combination: 1.5 µg/mL
[7]; 24 h, K1-EJ + GarKS
  MIC of the component in combination: 6 µg/mL
[7]; 24 h, K1-EJ + GarKS + MP1
  MIC of the component in combination: 3.3 µg/mL
[7]; 24 h, K1-EJ + MP1
  MIC of the component in combination: 23 µg/mL
[7]; 48 h, K1-EJ + GarKS
  MIC of the component in combination: 6.5 µg/mL
[7]; 48 h, K1-EJ + GarKS + MP1
  MIC of the component in combination: 5.8 µg/mL
[7]; 48 h, K1-EJ + MP1
  MIC of the component in combination: 48 µg/mL
[8]; 4068, 5 h
  MIC: 0.78 µg/mL
[8]; 4068, 24 h
  MIC: >100 µg/mL
[8]; 4068, 48 h
  MIC: >100 µg/mL
[8]; 5 h, K1-EJ + GarKS
  MIC of the component in combination: 0.83 µg/mL
[8]; 5 h, K1-EJ + GarKS + MP1
  MIC of the component in combination: 0.32 µg/mL
[8]; 5 h, K1-EJ + MP1
  MIC of the component in combination: 0.2 µg/mL
[8]; 24 h, K1-EJ + GarKS
  MIC of the component in combination: 3.1 µg/mL
[8]; 24 h, K1-EJ + GarKS + MP1
  MIC of the component in combination: 0.78 µg/mL
[8]; 24 h, K1-EJ + MP1
  MIC of the component in combination: 0.78 µg/mL
[8]; 48 h, K1-EJ + GarKS
  MIC of the component in combination: 6 µg/mL
[8]; 48 h, K1-EJ + GarKS + MP1
  MIC of the component in combination: 2.8 µg/mL
[8]; 48 h, K1-EJ + MP1
  MIC of the component in combination: 0.72 µg/mL
[9]; 4073, 5 h
  MIC: 0.78 µg/mL
[9]; 4073, 24 h
  MIC: >100 µg/mL
[9]; 4073, 48 h
  MIC: >100 µg/mL
[9]; 5 h, K1-EJ + GarKS
  MIC of the component in combination: 1.7 µg/mL
[9]; 5 h, K1-EJ + GarKS + MP1
  MIC of the component in combination: 0.33 µg/mL
[9]; 5 h, K1-EJ + MP1
  MIC of the component in combination: 0.2 µg/mL
[9]; 24 h, K1-EJ + GarKS
  MIC of the component in combination: 6.3 µg/mL
[9]; 24 h, K1-EJ + GarKS + MP1
  MIC of the component in combination: 0.78 µg/mL
[9]; 24 h, K1-EJ + MP1
  MIC of the component in combination: 0.36 µg/mL
[9]; 48 h, K1-EJ + GarKS
  MIC of the component in combination: 12 µg/mL
[9]; 48 h, K1-EJ + GarKS + MP1
  MIC of the component in combination: 1.6 µg/mL
[9]; 48 h, K1-EJ + MP1
  MIC of the component in combination: 0.85 µg/mL
[10]; 4071, 5 h
  MIC: 0.78 µg/mL
[10]; 4071, 24 h
  MIC: >100 µg/mL
[10]; 4071, 48 h
  MIC: >100 µg/mL
[10]; 5 h, K1-EJ + GarKS
  MIC of the component in combination: 1.6 µg/mL
[10]; 5 h, K1-EJ + GarKS + MP1
  MIC of the component in combination: 0.72 µg/mL
[10]; 5 h, K1-EJ + MP1
  MIC of the component in combination: 0.42 µg/mL
[10]; 24 h, K1-EJ + GarKS
  MIC of the component in combination: 12 µg/mL
[10]; 24 h, K1-EJ + GarKS + MP1
  MIC of the component in combination: 1.6 µg/mL
[10]; 24 h, K1-EJ + MP1
  MIC of the component in combination: 1.4 µg/mL
[10]; 48 h, K1-EJ + GarKS
  MIC of the component in combination: 24 µg/mL
[10]; 48 h, K1-EJ + GarKS + MP1
  MIC of the component in combination: 3.3 µg/mL
[10]; 48 h, K1-EJ + MP1
  MIC of the component in combination: 3 µg/mL
[11]; 4072, 5 h
  MIC: 0.78 µg/mL
[11]; 4072, 24 h
  MIC: >100 µg/mL
[11]; 4072, 48 h
  MIC: >100 µg/mL
[11]; 5 h, K1-EJ + GarKS
  MIC of the component in combination: 1.5 µg/mL
[11]; 5 h, K1-EJ + GarKS + MP1
  MIC of the component in combination: 0.68 µg/mL
[11]; 5 h, K1-EJ + MP1
  MIC of the component in combination: 0.36 µg/mL
[11]; 24 h, K1-EJ + GarKS
  MIC of the component in combination: 12 µg/mL
[11]; 24 h, K1-EJ + GarKS + MP1
  MIC of the component in combination: 1.6 µg/mL
[11]; 24 h, K1-EJ + MP1
  MIC of the component in combination: 1.5 µg/mL
[11]; 48 h, K1-EJ + GarKS
  MIC of the component in combination: 13 µg/mL
[11]; 48 h, K1-EJ + GarKS + MP1
  MIC of the component in combination: 5.8 µg/mL
[11]; 48 h, K1-EJ + MP1
  MIC of the component in combination: 1.6 µg/mL
